{"source": "PubChem BioAssay AID1963444", "about": "(Molecular Pharmacology Branch, DTP, NCI, 2024)", "system": "HSSY-II complex spheroid growth, percent test/control", "test": "Anticancer human tumor HSSY-II cell line growth inhibition [Asc];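 for all read-outs here: spheroids exposed to drug for 7 days before reading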", "conditions": "for IC50: curve of first compound; for viability, T/C: stronger effect = lower value", "procedure,_shortened": "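Complex solid-tumor spheroids incorporating human endothelial and mesenchymal stem cells received single agents or combinations over half-log dilution ranges anchored to clinical Cmax.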"}
{"compound": "NC1CCC(NC2CC2c2ccccc2)CC1", "note": "(stereo not given) + CCN1C(C(=O)NC23CCC(C(=O)O)(CC2)CC3)C(c2cccc(Cl)c2F)C2(C(=O)Nc3cc(Cl)ccc32)C12CCCCC2", "values": [{"measurement": "IC50", "setting": "second compound 0.03 µM", "result": "> 100", "unit": "nM"}, {"measurement": "IC50", "setting": "second compound 0.0949 µM", "result": 2.07, "unit": "nM"}, {"measurement": "IC50", "setting": "second compound 0.3 µM", "result": "< 0.316", "unit": "nM"}, {"measurement": "IC50", "setting": "second compound 0.949 µM", "result": "< 0.316", "unit": "nM"}, {"measurement": "IC50", "setting": "second compound 3 µM", "result": "< 0.316", "unit": "nM"}, {"measurement": "viability, T/C", "setting": "second compound 0.03 µM, first compound 0.000316 µM", "result": 61.3, "unit": "%"}, {"measurement": "viability, T/C", "setting": "second compound 0.03 µM, first compound 0.001 µM", "result": 64, "unit": "%"}, {"measurement": "viability, T/C", "setting": "second compound 0.03 µM, first compound 0.00316 µM", "result": 58.6, "unit": "%"}, {"measurement": "viability, T/C", "setting": "second compound 0.03 µM, first compound 0.01 µM", "result": 59.8, "unit": "%"}, {"measurement": "viability, T/C", "setting": "second compound 0.03 µM, first compound 0.0316 µM", "result": 55.8, "unit": "%"}, {"measurement": "viability, T/C", "setting": "second compound 0.03 µM, first compound 0.1 µM", "result": 57, "unit": "%"}, {"measurement": "viability, T/C", "setting": "second compound 0.0949 µM, first compound 0.000316 µM", "result": 51.2, "unit": "%"}, {"measurement": "viability, T/C", "setting": "second compound 0.0949 µM, first compound 0.001 µM", "result": 51.1, "unit": "%"}, {"measurement": "viability, T/C", "setting": "second compound 0.0949 µM, first compound 0.00316 µM", "result": 49.1, "unit": "%"}, {"measurement": "viability, T/C", "setting": "second compound 0.0949 µM, first compound 0.01 µM", "result": 47.7, "unit": "%"}, {"measurement": "viability, T/C", "setting": "second compound 0.0949 µM, first compound 0.0316 µM", "result": 51.1, "unit": "%"}, {"measurement": "viability, T/C", "setting": "second compound 0.0949 µM, first compound 0.1 µM", "result": 44.3, "unit": "%"}, {"measurement": "viability, T/C", "setting": "second compound 0.3 µM, first compound 0.000316 µM", "result": 27.9, "unit": "%"}, {"measurement": "viability, T/C", "setting": "second compound 0.3 µM, first compound 0.001 µM", "result": 24.9, "unit": "%"}, {"measurement": "viability, T/C", "setting": "second compound 0.3 µM, first compound 0.00316 µM", "result": 26.9, "unit": "%"}, {"measurement": "viability, T/C", "setting": "second compound 0.3 µM, first compound 0.01 µM", "result": 23.3, "unit": "%"}, {"measurement": "viability, T/C", "setting": "second compound 0.3 µM, first compound 0.0316 µM", "result": 25.6, "unit": "%"}, {"measurement": "viability, T/C", "setting": "second compound 0.3 µM, first compound 0.1 µM", "result": 27, "unit": "%"}, {"measurement": "viability, T/C", "setting": "second compound 0.949 µM, first compound 0.000316 µM", "result": 8.22, "unit": "%"}, {"measurement": "viability, T/C", "setting": "second compound 0.949 µM, first compound 0.001 µM", "result": 6.71, "unit": "%"}, {"measurement": "viability, T/C", "setting": "second compound 0.949 µM, first compound 0.00316 µM", "result": 6.88, "unit": "%"}, {"measurement": "viability, T/C", "setting": "second compound 0.949 µM, first compound 0.01 µM", "result": 6.14, "unit": "%"}, {"measurement": "viability, T/C", "setting": "second compound 0.949 µM, first compound 0.0316 µM", "result": 7.47, "unit": "%"}, {"measurement": "viability, T/C", "setting": "second compound 0.949 µM, first compound 0.1 µM", "result": 6.92, "unit": "%"}, {"measurement": "viability, T/C", "setting": "second compound 3 µM, first compound 0.000316 µM", "result": 1.71, "unit": "%"}, {"measurement": "viability, T/C", "setting": "second compound 3 µM, first compound 0.001 µM", "result": 1.81, "unit": "%"}, {"measurement": "viability, T/C", "setting": "second compound 3 µM, first compound 0.00316 µM", "result": 1.94, "unit": "%"}, {"measurement": "viability, T/C", "setting": "second compound 3 µM, first compound 0.01 µM", "result": 1.61, "unit": "%"}, {"measurement": "viability, T/C", "setting": "second compound 3 µM, first compound 0.0316 µM", "result": 1.43, "unit": "%"}, {"measurement": "viability, T/C", "setting": "second compound 3 µM, first compound 0.1 µM", "result": 2.12, "unit": "%"}]}
